The nature of series [1]: Tissue distribution of radioactivity after IV administration in rats bearing Walker 256 sarcoma (Tables 1-4). Conditions: rat, 125I-labelled; for tissue uptake at 6 h: 6 hours after IV; for tissue uptake at 24 h: 24 hours after IV. It is filed as in vivo, female Sprague Dawley rats. The protocol: (§1) Radiolabelled compounds 1-[12-(m-iodophenyl)-dodecyl]-2-methyl-rac-glycero-3-phosphocholine (ET-12IP-OMe; Example 2, compound 18) and 1-[12-(m-iodophenyl)-dodecyl]-propanediol-3-phosphocholine (ET-12IP-OH; Example 3, compound 24) were prepared and administered to two sets of female Sprague Dawley rats: normal rats (control) and rats bearing tumors resulting from Walker 256 sarcoma cells which had been implanted into the thigh. The labelled compounds (5-35 μCi ^125 I) were administered intravenously in a 2% Tween 20-saline vehicle. At various times following administration the animals were sacrificed, and selected tissue samples were removed. The tissue samples were weighed and placed in cellulose acetate capsules. The radioactivity was then counted (85% efficiency) using a well scintillation counter (Searle 1185).

For series [2], the system named is Walker 256 sarcoma. The series is described as above. The series is classed as in vivo, female Sprague Dawley rats. The protocol: as §1
Series [3] can be described thus: Tissue distribution of radioactivity after IV administration in normal (control) rats (Tables 1-4). It is filed as in vivo, female Sprague Dawley rats. The settings on record: rat, 125I-labelled; for tissue uptake at 6 h: 6 hours after IV, N = 3, mean ± standard error; for tissue uptake at 24 h: 24 hours after IV. The protocol:
as §1

The nature of series [4]: Tissue distribution 24 hours after I.V. administration to rats bearing the Walker-256 carcinosarcoma (Tables 5 and 6). The series is classed as in vivo, Sprague-Dawley rats. Conditions: rat, iv, tumor-bearing rats. The protocol: Tissue distribution studies were conducted with the alkyl lysophospholipid analogues of general Formula II.
The test system of series [5] is Walker 256 sarcoma. Conditions: rat, in vivo.
Source text: (§2) Both types of lesions were located in the thigh of the rat. Tumor bearing lesions were produced by implantation of Walker 256 sarcoma cells and inflammatory granuloma lesions were developed using carrageenan irritation in accordance with the method described by Atkinson, et al., Agents and Actions, Vol. 8, pages 263-267, 1978.
In series [6] the test system is inflammatory granuloma lesions. The settings on record: rat, in vivo.
Source text: as §2
Another series concerns tumor. Conditions: background; cited from earlier work.
The test system of series [7] is Walker 256 sarcoma. Put plainly: Gamma-camera scintigraphy in tumor-bearing rats.
Source text: as §2
Series [8] has as its system inflammatory granuloma lesions. Description: Gamma-camera scintigraphy in rats bearing inflammatory lesions (granuloma).
Source text: as §2
Series [9] has as its system human HTB 77 ovarian adenocarcinoma, NCI 69 human small cell carcinoma, and human HTB 63 melanoma. Description: In vivo tumor localization and scintigraphy in athymic nude mice with subcutaneous human tumors (Example 8). The settings on record: similar studies to those with compound 50 (rat and athymic mouse models).
The mark [10] stands for this setting: blood, tumor-bearing rats, N = 3, mean ± standard error, read-out: Radioactivity in blood.
[11] abbreviates: kidney, tumor-bearing rats, N = 3, mean ± standard error, read-out: Radioactivity in kidney.
Where [12] appears, read: liver, tumor-bearing rats, N = 3, mean ± standard error, read-out: Radioactivity in liver.
Setting [13] is: lung, tumor-bearing rats, N = 3, mean ± standard error, read-out: Radioactivity in lung.
Where [14] appears, read: muscle, tumor-bearing rats, N = 3, mean ± standard error, read-out: Radioactivity in muscle.
Where [15] appears, read: walker 256 tumor, Walker 256 sarcoma implanted in thigh, N = 3, mean ± standard error, read-out: Radioactivity in tumor.
[16] abbreviates: blood, read-out: Radioactivity in blood.
Setting [17] is: kidney, read-out: Radioactivity in kidney.
Where [18] appears, read: liver, read-out: Radioactivity in liver.
[19] abbreviates: lung, read-out: Radioactivity in lung.
[20] abbreviates: muscle, read-out: Radioactivity in muscle.
The mark [21] stands for this setting: adrenal, read-out: Distribution of radioactivity: adrenal.
Where [22] appears, read: blood, read-out: Distribution of radioactivity: blood.
Setting [23] is: read-out: Distribution of radioactivity: tumor.
Setting [24] is: kidney, read-out: Distribution of radioactivity: kidney.
Where [25] appears, read: liver, read-out: Distribution of radioactivity: liver.
Where [26] appears, read: lung, read-out: Distribution of radioactivity: lung.
[27] abbreviates: muscle, read-out: Distribution of radioactivity: muscle.
[28] abbreviates: thyroid, read-out: Distribution of radioactivity: thyroid.
[29] abbreviates: whole body scans 24 hours after administration.

Read-outs that look alike come from different tables or passages of the source.

As to `COC(COCCCCCCCCCCCCc1cccc([125I])c1)COP(=O)([O-])OCC[N+](C)(C)C` (racemic) [ET-12IP-OMe, 1-[12-(m-iodophenyl)-dodecyl]-2-methyl-rac-glycero-3-phosphocholine], the tissue uptake at 6 h in series [1] (setting [10]) is 0.231 ± 0.008 %ID/g; in series [1] (setting [11]), 1.31 ± 0.091 %ID/g; in [1] (setting [12]) it was 3.59 ± 0.189 %ID/g; in series [1] (setting [13]) it was 0.873 ± 0.081 %ID/g; in series [1] (setting [14]), 0.046 ± 0.001 %ID/g; in series [1] (setting [15]), 1.12 ± 0.024 %ID/g. Also, the tissue uptake at 6 h in [3] (setting [16]) came out at 0.105 ± 0.009 %ID/g; in [3] (setting [17]), 0.65 ± 0.114 %ID/g; in [3] (setting [18]) it was 1.74 ± 0.125 %ID/g; in series [3] (setting [19]) it was 0.356 ± 0.012 %ID/g; in series [3] (setting [20]), 0.023 %ID/g. For the same molecule, the tissue uptake at 24 h amounted to 0.096 ± 0.023 %ID/g in series [1] (setting [10]); 0.463 ± 0.111 %ID/g in series [1] (setting [11]); 0.743 ± 0.105 %ID/g in [1] (setting [12]); 0.299 ± 0.017 %ID/g in [1] (setting [13]); 0.027 ± 0.006 %ID/g in series [1] (setting [14]); 1.11 ± 0.016 %ID/g in series [1] (setting [15]). In addition, the tissue uptake at 24 h in series [3] (blood, N = 4, mean ± standard error, read-out: Radioactivity in blood) came out at 0.085 ± 0.001 %ID/g; in [3] (kidney, N = 4, mean ± standard error, read-out: Radioactivity in kidney), 0.426 ± 0.03 %ID/g; in series [3] (liver, N = 4, mean ± standard error, read-out: Radioactivity in liver), 0.675 ± 0.02 %ID/g; in series [3] (lung, N = 4, mean ± standard error, read-out: Radioactivity in lung), 0.218 ± 0.01 %ID/g; in series [3] (muscle, N = 4, mean ± standard error, read-out: Radioactivity in muscle) it was 0.034 ± 0.004 %ID/g; in series [4] (setting [21]) it was 0.436 %ID/g. Moreover, the tissue uptake at 24 h in series [4] (setting [22]) was found to be 0.096 %ID/g; in series [4] (setting [23]), 1.11 %ID/g; in series [4] (setting [24]), 0.463 %ID/g; in series [4] (setting [25]), 0.743 %ID/g; in series [4] (setting [26]), 0.299 %ID/g; in series [4] (setting [27]), 0.027 %ID/g. The tissue uptake at 24 h in series [4] (setting [28]) was determined as 7.34 %ID/g. Besides, the “clearance of radioactivity from tissues” value with Walker 256 sarcoma [2] (by 24 hours) is listed as “radioactivity had cleared significantly from all of the tissues except for tumor tissue”. For the same molecule, in the series with Walker 256 sarcoma [2] (six hours following administration), the “tissues with the highest concentrations of radioactivity” value was “liver, kidney, and tumor tissues exhibiting the highest concentrations”. For the same molecule, the localization in tumor result in the series with Walker 256 sarcoma [5] is on record as “capable of localizing in the tumor”. Further, the “localization in the inflammatory lesion” value in series [6] is reported as “little activity was associated with this area”.
`C[N+](C)(C)CCOP(=O)([O-])OCCCOCCCCCCCCCCCCc1cccc([125I])c1` [ET-12IP-H, 1-[12-(m-iodophenyl)-dodecyl]-propanediol-3-phosphocholine]: the tissue uptake at 6 h in [1] (setting [10]) came to 0.239 ± 0.024 %ID/g; in series [1] (setting [11]), 1.77 ± 0.108 %ID/g; in series [1] (setting [12]), 0.892 ± 0.083 %ID/g; in [1] (setting [13]), 0.525 %ID/g; in [1] (setting [14]) it was 0.05 ± 0.009 %ID/g; in [1] (setting [15]) it was 1.03 ± 0.158 %ID/g. In addition, the tissue uptake at 6 h in series [3] (setting [16]) turned out to be 0.475 ± 0.078 %ID/g; in series [3] (setting [17]), 2.6 ± 0.107 %ID/g; in series [3] (setting [18]) it was 1.35 ± 0.047 %ID/g; in series [3] (setting [19]), 0.816 ± 0.031 %ID/g; in series [3] (setting [20]), 0.083 ± 0.009 %ID/g. Also, the tissue uptake at 24 h in series [1] (blood, tumor-bearing rats, N = 3, mean ± standard error (Table 4), read-out: Radioactivity in blood) was 0.036 ± 0.004 %ID/g; in [1] (kidney, tumor-bearing rats, N = 3, mean ± standard error (Table 4), read-out: Radioactivity in kidney), 0.235 ± 0.018 %ID/g; in series [1] (liver, tumor-bearing rats, N = 3, mean ± standard error (Table 4), read-out: Radioactivity in liver), 0.139 ± 0.01 %ID/g; in series [1] (lung, tumor-bearing rats, N = 3, mean ± standard error (Table 4), read-out: Radioactivity in lung), 0.105 %ID/g; in series [1] (muscle, tumor-bearing rats, N = 3, mean ± standard error (Table 4), read-out: Radioactivity in muscle), 0.014 ± 0.001 %ID/g; in series [1] (walker 256 tumor, Walker 256 sarcoma implanted in thigh, N = 3, mean ± standard error (Table 4), read-out: Radioactivity in tumor), 0.463 ± 0.063 %ID/g. The tissue uptake at 24 h came out at 0.047 ± 0.035 %ID/g in [3] (blood, N = 3, mean ± standard error (Table 4), read-out: Radioactivity in blood); 0.257 ± 0.01 %ID/g in [3] (kidney, N = 3, mean ± standard error (Table 4), read-out: Radioactivity in kidney); 0.142 ± 0.033 %ID/g in series [3] (liver, N = 3, mean ± standard error (Table 4), read-out: Radioactivity in liver); 0.129 ± 0.013 %ID/g in [3] (lung, N = 3, mean ± standard error (Table 4), read-out: Radioactivity in lung); 0.025 ± 0.001 %ID/g in [3] (muscle, N = 3, mean ± standard error (Table 4), read-out: Radioactivity in muscle); 0.274 %ID/g in [4] (setting [21]). For the same molecule, the tissue uptake at 24 h was found to be 0.036 %ID/g in series [4] (setting [22]); 0.463 %ID/g in [4] (setting [23]); 0.235 %ID/g in series [4] (setting [24]); 0.139 %ID/g in [4] (setting [25]); 0.105 %ID/g in series [4] (setting [26]); 0.014 %ID/g in series [4] (setting [27]). The tissue uptake at 24 h in [4] (setting [28]) worked out at 8.45 %ID/g.
For the molecule `O=C([O-])CC(O)(CC(=O)[O-])C(=O)[O-].[67Ga+3]` [gallium-67 citrate], in the series on tumor, the “accumulation in inflammatory lesions” value is “also accumulates in a variety of other inflammatory lesions”; the “alteration of distribution by steroidal and antineoplastic drugs” value was “can be altered by a variety of steroidal and antineoplastic drugs”; the localization in tumor entry is on record as “will localize, or accumulate, in a tumor”. Also, the “accumulation in tumor (scintigraphic scan)” value with Walker 256 sarcoma [7] (24 hours after administration) is “high accumulation”. Besides, the “accumulation in liver (scintigraphic scan)” value in the series with Walker 256 sarcoma [7] (tumor-bearing rat, 24 hours after administration) is “low accumulation”. In addition, in the series on Walker 256 sarcoma [7] (setting [29]), the localization in tumor result was “capable of localizing in the tumor”. Further, the “accumulation in granuloma (inflammatory lesion), scintigraphic scan” value in series [8] (24 hours after administration, for ET-12IP-OMe in relation to liver) is listed as “high accumulation”. Besides, in [8] (granuloma-bearing rat, 24 hours after administration), the “accumulation in liver (scintigraphic scan)” value is reported as “high accumulation”. Also, the “localization in the inflammatory lesion” value in series [8] (setting [29]) is “found to localize in the inflammatory lesion”.
Take `CCCCCCCCCCCCCCCCOP(=O)([O-])OCC[N+](C)(C)Cc1cccc(I)c1` [Compound 60, hexadecyl-2-[N,N-dimethyl-N-(m-iodobenzyl)-ammonium] ethylphosphate]: the “localization in tumor tissues” value in [9] is “exhibited localization in tumor tissues”.

Source of the values: patent US5795561A, “Radioiodinated phospholipid ether analogues” (The Board of Regents of the University of Michigan, priority 1994, dated 1998).
